Common to all, as to test: relative viability (nuclei count vs DMSO), 5 days (fraction); higher = more cells survive
Compound in the experiment “BX 795 + Alpelisib”: O=C(NCCCNc1nc(Nc2cccc(NC(=O)N3CCCC3)c2)ncc1I)c1cccs1 [BX 795] + Cc1nc(NC(=O)N2CCC[C@H]2C(N)=O)sc1-c1ccnc(C(C)(C)C(F)(F)F)c1 [Alpelisib] (partner 2 µM)
The essentials:
(§1)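 Relative viability is defined as nuclei in treated wells over nuclei in vehicle wells. Duplicate plates were run and medians reported. Lung cancer cell lines in 1536-well plates were dosed by pin tool one day after seeding, with one drug or with a fixed anchor-drug dose plus five library-drug doses (not always all listed) in √10 steps, and nuclei were counted after 5 days.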

Compound in the experiment “BX 795 + Luminespib”: O=C(NCCCNc1nc(Nc2cccc(NC(=O)N3CCCC3)c2)ncc1I)c1cccs1 [BX 795] + CCNC(=O)c1noc(-c2cc(C(C)C)c(O)cc2O)c1-c1ccc(CN2CCOCC2)cc1 [Luminespib] (partner 0.01 µM)
In short, it runs like this: as §1

Compound in the experiment “BX 795 + Bortezomib”: O=C(NCCCNc1nc(Nc2cccc(NC(=O)N3CCCC3)c2)ncc1I)c1cccs1 [BX 795] + CC(C)C[C@H](NC(=O)[C@H](Cc1ccccc1)NC(=O)c1cnccn1)B(O)O [Bortezomib] (partner 0.002 µM)
In short, it runs like this:
as §1

Compound in the experiment “BX 795 + Lapatinib”: O=C(NCCCNc1nc(Nc2cccc(NC(=O)N3CCCC3)c2)ncc1I)c1cccs1 [BX 795] + CS(=O)(=O)CCNCc1ccc(-c2ccc3ncnc(Nc4ccc(OCc5cccc(F)c5)c(Cl)c4)c3c2)o1 [Lapatinib] (partner 2 µM)
The essentials: as §1

Compound in the experiment “BX 795 + OSI-027”: O=C(NCCCNc1nc(Nc2cccc(NC(=O)N3CCCC3)c2)ncc1I)c1cccs1 [BX 795] + COc1cccc2cc(-c3nc([C@H]4CC[C@H](C(=O)O)CC4)n4ncnc(N)c34)[nH]c12 [OSI-027] (partner 0.5 µM)
In short, it runs like this:
as §1

As to SW 1573, the relative viability turned out to be 0.766 in the experiment with BX 795 + Alpelisib (first compound 0.04 µM); 0.734 with BX 795 + Alpelisib (first compound 0.1265 µM); 1.01 with BX 795 + Alpelisib (first compound 0.4 µM); 0.674 in the experiment with BX 795 + Alpelisib (first compound 1.265 µM); 0.214 in the experiment with BX 795 + Luminespib (first compound 0.04 µM); 0.488 with BX 795 + Luminespib (first compound 0.1265 µM). The relative viability in the experiment with BX 795 + Luminespib (first compound 0.4 µM) came to 0.514; in the experiment with BX 795 + Luminespib (first compound 1.265 µM), 0.172; in the experiment with BX 795 + Bortezomib (first compound 0.04 µM), 1.11; with BX 795 + Bortezomib (first compound 0.1265 µM), 1.21; with BX 795 + Bortezomib (first compound 0.4 µM) it was 1.29; in the experiment with BX 795 + Bortezomib (first compound 1.265 µM), 0.877. Besides, the relative viability in the experiment with BX 795 + Lapatinib (first compound 0.04 µM) amounted to 1.13; with BX 795 + Lapatinib (first compound 0.1265 µM), 1.18; with BX 795 + Lapatinib (first compound 0.4 µM), 1.26; in the experiment with BX 795 + Lapatinib (first compound 1.265 µM), 0.781; with BX 795 + OSI-027 (first compound 0.04 µM) it was 0.684; in the experiment with BX 795 + OSI-027 (first compound 0.1265 µM), 0.686. The results for the relative viability with BX 795 + OSI-027 (first compound 0.4 µM) and with BX 795 + OSI-027 (first compound 1.265 µM) were 0.614 and 0.322, respectively.
Consider NCI-H1651, for which the relative viability with BX 795 + Alpelisib (first compound 0.04 µM) is 0.933; with BX 795 + Alpelisib (first compound 0.1265 µM), 1.02; in the experiment with BX 795 + Alpelisib (first compound 0.4 µM), 0.881; in the experiment with BX 795 + Alpelisib (first compound 1.265 µM), 0.782; in the experiment with BX 795 + Luminespib (first compound 0.04 µM), 0.982; with BX 795 + Luminespib (first compound 0.1265 µM), 0.987. Further, the relative viability with BX 795 + Luminespib (first compound 0.4 µM) is 0.78; in the experiment with BX 795 + Luminespib (first compound 1.265 µM), 0.511; in the experiment with BX 795 + Bortezomib (first compound 0.04 µM) it was 0.925; with BX 795 + Bortezomib (first compound 0.1265 µM) it was 0.961; with BX 795 + Bortezomib (first compound 0.4 µM), 1.04; with BX 795 + Bortezomib (first compound 1.265 µM), 0.971. Besides, the relative viability in the experiment with BX 795 + Lapatinib (first compound 0.04 µM) was determined as 0.756; with BX 795 + Lapatinib (first compound 0.1265 µM) it was 0.801; with BX 795 + Lapatinib (first compound 0.4 µM) it was 0.764; with BX 795 + Lapatinib (first compound 1.265 µM), 0.64; with BX 795 + OSI-027 (first compound 0.04 µM) it was 0.588; in the experiment with BX 795 + OSI-027 (first compound 0.1265 µM) it was 0.716. The results for the relative viability with BX 795 + OSI-027 (first compound 0.4 µM) and with BX 795 + OSI-027 (first compound 1.265 µM) were 0.576 and 0.765, respectively.
Regarding UMC-11, the relative viability with BX 795 + Alpelisib (first compound 0.04 µM) stood at 1.02; with BX 795 + Alpelisib (first compound 0.1265 µM), 1.14; in the experiment with BX 795 + Alpelisib (first compound 0.4 µM), 1.02; in the experiment with BX 795 + Alpelisib (first compound 1.265 µM) it was 0.354; in the experiment with BX 795 + Luminespib (first compound 0.04 µM), 0.751; in the experiment with BX 795 + Luminespib (first compound 0.1265 µM) it was 1.06. For the same cell line, the relative viability with BX 795 + Luminespib (first compound 0.4 µM) came to 1.07; with BX 795 + Luminespib (first compound 1.265 µM), 0.271; with BX 795 + Bortezomib (first compound 0.04 µM), 0.678; in the experiment with BX 795 + Bortezomib (first compound 0.1265 µM), 0.983; in the experiment with BX 795 + Bortezomib (first compound 0.4 µM), 0.847; in the experiment with BX 795 + Bortezomib (first compound 1.265 µM), 0.36. Further, the relative viability in the experiment with BX 795 + Lapatinib (first compound 0.04 µM) worked out at 0.949; with BX 795 + Lapatinib (first compound 0.1265 µM), 1.05; in the experiment with BX 795 + Lapatinib (first compound 0.4 µM), 0.757; with BX 795 + Lapatinib (first compound 1.265 µM) it was 0.333; with BX 795 + OSI-027 (first compound 0.04 µM), 0.469; in the experiment with BX 795 + OSI-027 (first compound 0.1265 µM), 0.43. The results for the relative viability in the experiment with BX 795 + OSI-027 (first compound 0.4 µM) and in the experiment with BX 795 + OSI-027 (first compound 1.265 µM) were 0.371 and 0.27, respectively.
In the case of EMC-BAC-2, the relative viability with BX 795 + Alpelisib (first compound 0.04 µM) was 0.766; with BX 795 + Alpelisib (first compound 0.1265 µM) it was 0.795; in the experiment with BX 795 + Alpelisib (first compound 0.4 µM), 0.715; with BX 795 + Alpelisib (first compound 1.265 µM) it was 0.464; in the experiment with BX 795 + Luminespib (first compound 0.04 µM) it was 1.18; with BX 795 + Luminespib (first compound 0.1265 µM), 1.22. Moreover, the relative viability with BX 795 + Luminespib (first compound 0.4 µM) was 1.13; with BX 795 + Luminespib (first compound 1.265 µM) it was 0.492; in the experiment with BX 795 + Bortezomib (first compound 0.04 µM), 1.08; in the experiment with BX 795 + Bortezomib (first compound 0.1265 µM), 1.08; with BX 795 + Bortezomib (first compound 0.4 µM) it was 1.13; in the experiment with BX 795 + Bortezomib (first compound 1.265 µM), 1.06. The relative viability in the experiment with BX 795 + Lapatinib (first compound 0.04 µM) came to 0.907; with BX 795 + Lapatinib (first compound 0.1265 µM) it was 0.905; in the experiment with BX 795 + Lapatinib (first compound 0.4 µM) it was 0.884; in the experiment with BX 795 + Lapatinib (first compound 1.265 µM), 0.758; in the experiment with BX 795 + OSI-027 (first compound 0.04 µM) it was 0.413; in the experiment with BX 795 + OSI-027 (first compound 0.1265 µM), 0.404. The relative viability with BX 795 + OSI-027 (first compound 0.4 µM) amounted to 0.377; with BX 795 + OSI-027 (first compound 1.265 µM) it was 0.273.
Consider CAL-12T, for which the relative viability in the experiment with BX 795 + Alpelisib (first compound 0.04 µM) was 1.12; in the experiment with BX 795 + Alpelisib (first compound 0.1265 µM), 1.5; with BX 795 + Alpelisib (first compound 0.4 µM) it was 1.29; in the experiment with BX 795 + Alpelisib (first compound 1.265 µM), 0.285; with BX 795 + Luminespib (first compound 0.04 µM) it was 0.534; in the experiment with BX 795 + Luminespib (first compound 0.1265 µM), 0.488. Besides, the relative viability with BX 795 + Luminespib (first compound 0.4 µM) worked out at 0.194; with BX 795 + Luminespib (first compound 1.265 µM), 0.181; with BX 795 + Bortezomib (first compound 0.04 µM), 0.954; with BX 795 + Bortezomib (first compound 0.1265 µM), 0.929; with BX 795 + Bortezomib (first compound 0.4 µM) it was 1.04; with BX 795 + Bortezomib (first compound 1.265 µM) it was 0.623. Also, the relative viability amounted to 0.738 in the experiment with BX 795 + Lapatinib (first compound 0.04 µM); 0.624 with BX 795 + Lapatinib (first compound 0.1265 µM); 0.608 with BX 795 + Lapatinib (first compound 0.4 µM); 0.29 in the experiment with BX 795 + Lapatinib (first compound 1.265 µM); 0.726 with BX 795 + OSI-027 (first compound 0.04 µM); 0.834 in the experiment with BX 795 + OSI-027 (first compound 0.1265 µM). The values for the relative viability with BX 795 + OSI-027 (first compound 0.4 µM) and with BX 795 + OSI-027 (first compound 1.265 µM) were 0.669 and 0.186, respectively.
Take NCI-H520: the relative viability with BX 795 + Alpelisib (first compound 0.04 µM) was 0.859; in the experiment with BX 795 + Alpelisib (first compound 0.1265 µM), 0.91; with BX 795 + Alpelisib (first compound 0.4 µM), 0.786; in the experiment with BX 795 + Alpelisib (first compound 1.265 µM), 0.444; in the experiment with BX 795 + Luminespib (first compound 0.04 µM) it was 0.211; with BX 795 + Luminespib (first compound 0.1265 µM) it was 0.2. For the same cell line, the relative viability turned out to be 0.225 with BX 795 + Luminespib (first compound 0.4 µM); 0.277 in the experiment with BX 795 + Luminespib (first compound 1.265 µM); 0.355 with BX 795 + Bortezomib (first compound 0.04 µM); 0.36 with BX 795 + Bortezomib (first compound 0.1265 µM); 0.356 in the experiment with BX 795 + Bortezomib (first compound 0.4 µM); 0.308 with BX 795 + Bortezomib (first compound 1.265 µM). Further, the relative viability in the experiment with BX 795 + Lapatinib (first compound 0.04 µM) is 0.38; with BX 795 + Lapatinib (first compound 0.1265 µM) it was 0.778; with BX 795 + Lapatinib (first compound 0.4 µM) it was 0.672; in the experiment with BX 795 + Lapatinib (first compound 1.265 µM) it was 0.301; in the experiment with BX 795 + OSI-027 (first compound 0.04 µM), 0.226; with BX 795 + OSI-027 (first compound 0.1265 µM) it was 0.255. The relative viability with BX 795 + OSI-027 (first compound 0.4 µM) worked out at 0.19; with BX 795 + OSI-027 (first compound 1.265 µM), 0.201.
As to NCI-H1755, the relative viability with BX 795 + Alpelisib (first compound 0.04 µM) was determined as 0.929; in the experiment with BX 795 + Alpelisib (first compound 0.1265 µM), 0.9; in the experiment with BX 795 + Alpelisib (first compound 0.4 µM) it was 0.93; with BX 795 + Alpelisib (first compound 1.265 µM) it was 0.63; in the experiment with BX 795 + Luminespib (first compound 0.04 µM), 0.635; in the experiment with BX 795 + Luminespib (first compound 0.1265 µM), 0.412. Further, the relative viability worked out at 0.283 in the experiment with BX 795 + Luminespib (first compound 0.4 µM); 0.388 with BX 795 + Luminespib (first compound 1.265 µM); 1.01 with BX 795 + Bortezomib (first compound 0.04 µM); 0.963 with BX 795 + Bortezomib (first compound 0.1265 µM); 1.05 in the experiment with BX 795 + Bortezomib (first compound 0.4 µM); 0.758 with BX 795 + Bortezomib (first compound 1.265 µM). Further, the relative viability with BX 795 + Lapatinib (first compound 0.04 µM) amounted to 1.03; with BX 795 + Lapatinib (first compound 0.1265 µM), 1.05; in the experiment with BX 795 + Lapatinib (first compound 0.4 µM) it was 0.999; with BX 795 + Lapatinib (first compound 1.265 µM), 0.861; with BX 795 + OSI-027 (first compound 0.04 µM), 0.711; in the experiment with BX 795 + OSI-027 (first compound 0.1265 µM), 0.74. The relative viability with BX 795 + OSI-027 (first compound 0.4 µM) is 0.794; with BX 795 + OSI-027 (first compound 1.265 µM), 0.552.

(Values after the supplement of paper PMC10307832.)
